Test results reported in US20220193242A1, “IMMUNOPHILIN-DEPENDENT INHIBITORS AND USES THEREOF” (The Regents of the University of California, priority 2019, published 2022).

Legend:
SK-BR-3 cells = assay: Growth inhibition of SK-BR-3 cells; format: cell-based
From the text: (§1) FIGS. 4A-4C. A general approach to construct FKBP-dependent, programmable kinase inhibitors. (FIG. 4A) Structures of lapatinib and FK-lapatinib, their effects on HER2 signaling and the growth inhibition of SK-BR-3 cells by these compounds. (FIGS. 4B-4C) Structures of GNE7915 and FK-GNE7915 and their inhibition of LRRK2 autophosphorylation.
(§2) We extended our design strategy and prepared two other bispecific ligands based on the structures of an FDA-approved HER2/EGFR inhibitor (lapatinib) and an LRRK2 inhibitor in clinical development (GNE7915). […] With the three case studies presented above, we cautiously anticipate that the same workflow could be applied to convert other kinase inhibitors into FKBP-dependent formats with similar if not better cellular activities.

HER2 = HER2 signaling in SK-BR-3 cells; format: cell-based; conditions: 1 μM
From the text: as §1, §2

[1] = test system: TCR signaling (phospho-tyrosine) in Jurkat cells; assay: CD3 crosslinking (OKT3) triggered T cell activation in Jurkat cells, Western blot; format: cell-based
Experimental: (§3) FIGS. 3A-3D. […] The phosphotyrosine levels were monitored by Western blot at various time points over 24 h.
FIG. 25. […] Jurkat cells (1×10^6/mL) were treated with the indicated drugs for 1 h, then stimulated with anti-CD3 mAb OKT3 (5 μg/mL) for 5 min. before lysis and analysis.

K562 = conditions: K562, 72 h treatment
Experimental: FIG. 27. […] K562 (seeding density 5×10^4/mL) cells, 72 h treatment.

Src and HA-FKBP12 = target: T1, Src and HA-FKBP12 (Homo sapiens, UniProt P12931+P62942); assay: Immunoprecipitation of HA-FKBP12 from Jurkat cell lysate; format: binding; conditions: Jurkat cell lysate 1 mg/mL, 1 μM compound
T1 construct: endogenous in cells; host or cells: Jurkat cell lysate (Src); HA-FKBP12 added as purified protein
Experimental: FIGS. 2A-2C. […] Fractions of 0.5 mL were collected and analyzed by SDS-PAGE.
FIG. 23. […] Pulldown was performed with Jurkat cell lysate (1 mg/mL, 200 μL), supplemented with 2 μg HA-FKBP12. Pulldown/wash buffer: 50 mM Tris 7.4, 120 mM NaCl, 1% NP-40, 1 mM EDTA, phosphatase/protease inhibitors.

[2] = test system: phosphotyrosine levels in Jurkat cells; assay: Drug washout, phosphotyrosine levels over 24 h in Jurkat cells; format: cell-based; conditions: 100 nM for 1 h
Experimental: as §3
FIG. 26. […] Jurkat cells (1×10^6/mL) were treated with 100 nM of the indicated compounds for 1 h, then were washed 3 times with PBS and resuspended in culture media. Samples were taken at the indicated time points and lysed immediately.

FKBP12 [3] = target: T2, FKBP12 (Homo sapiens, UniProt P62942); assay: FKBP12 dependence of activity (FIG. 19)
[4] = test system: 139 kinases captured by the probe XO44; assay: In-cell kinase occupancy profiling with chemoproteomic probe XO44 in Jurkat cells; format: cell-based; conditions: 100 nM, among 139 kinases captured by XO44, Jurkat cells
HRAS, CypA, Sos = HRAS, CypA, Sos (Homo sapiens, UniProt P01112+P62937, M72C); assay: HRAS.CypA ternary complex and Sos-mediated nucleotide exchange; format: biochemical
Experimental: FIG. 44. […] Assay conditions: 1 μM Ras.GDP, 1 μM Mant-GDP, 20 mM EPES 7.5, 150 mM NaCl, 10 mM EDTA or 1 μM Sos. 95A is synonymous to 06-031.

Ras.Raf binding = Ras.Raf binding pulldown; conditions: HRAS.CypA ternary complex
Experimental: FIG. 45. […] Pulldown conditions: 100 nM KRAS, 50 μg/mL BSA, 20 mM HEPES 7.5, 150 mM NaCl, 5 mM MgCl2, 1 mM […], 1% NP-40. GppNHp loaded proteins were prepared by EDTA-mediated nucleotide exchange.

LRRK2 = assay: Inhibition of LRRK2 autophosphorylation; format: cell-based
Experimental: as §1
FIG. 30. […] 3T3 or RAW264.7 cells (MJFF cell line), 2 h treatment.
as §2

KRAS and CypA = KRAS and CypA (Homo sapiens, UniProt P01116+P62937, G12C); assay: Melting curve of the KRAS.CypA complex; format: binding
FKBP12 [5] = target: T2, FKBP12; assay: Fluorescence polarization assay of binding to FKBP12

T2 sequence (P62942 whole entry): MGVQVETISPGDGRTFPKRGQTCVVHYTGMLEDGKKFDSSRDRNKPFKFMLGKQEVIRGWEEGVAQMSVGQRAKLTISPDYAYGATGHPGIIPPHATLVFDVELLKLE
T1 sequence (P12931 2-536 limits assumed): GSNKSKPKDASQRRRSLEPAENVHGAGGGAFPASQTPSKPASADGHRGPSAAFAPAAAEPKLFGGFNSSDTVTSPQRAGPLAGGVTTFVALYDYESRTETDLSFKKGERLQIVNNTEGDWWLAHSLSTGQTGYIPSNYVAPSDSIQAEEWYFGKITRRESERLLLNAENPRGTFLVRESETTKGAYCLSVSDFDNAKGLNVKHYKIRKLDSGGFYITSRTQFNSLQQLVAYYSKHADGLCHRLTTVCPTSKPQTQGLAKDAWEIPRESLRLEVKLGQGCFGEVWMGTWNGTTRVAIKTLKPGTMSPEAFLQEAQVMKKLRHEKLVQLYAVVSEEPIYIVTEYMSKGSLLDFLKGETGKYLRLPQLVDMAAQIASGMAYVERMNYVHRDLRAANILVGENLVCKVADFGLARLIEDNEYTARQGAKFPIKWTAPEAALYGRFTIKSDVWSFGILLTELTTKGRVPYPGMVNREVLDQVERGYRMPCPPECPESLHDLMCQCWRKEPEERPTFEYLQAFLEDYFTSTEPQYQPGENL
T1 sequence (P62942 whole entry): as the sequence (P62942 whole entry) above

In the case of `CO[C@H]1C[C@@H](C)C/C(C)=C/[C@@H](CCCC(=O)N2CCN(Cc3ccc(-c4ccc5ncnc(Nc6ccc(OCc7cccc(F)c7)c(Cl)c6)c5c4)o3)CC2)C(=O)C[C@H](O)[C@@H](C)[C@@H](/C(C)=C/[C@@H]2CC[C@@H](O)[C@H](OC)C2)OC(=O)[C@@H]2CCCCN2C(=O)C(=O)[C@]2(O)O[C@H]1[C@@H](OC)C[C@H]2C` [FK-lapatinib], the “IC50 of growth inhibition” value (SK-BR-3 cells) is reported as “comparable to that of lapatinib” and the HER2 signaling (HER2) is reported as “suppressed”.

For `CO[C@H]1C[C@@H](C)C/C(C)=C/[C@@H](CCCC(=O)N2CCN(c3cc(Nc4ncc(C(=O)Nc5c(C)cccc5Cl)s4)nc(C)n3)CC2)C(=O)C[C@H](O)[C@@H](C)[C@@H](/C(C)=C/[C@@H]2CC[C@@H](O)[C@H](OC)C2)OC(=O)[C@@H]2CCCCN2C(=O)C(=O)[C@]2(O)O[C@H]1[C@@H](OC)C[C@H]2C` [Compound 05-022], the “inhibition of phosphotyrosine signal” value [1] was “potently inhibits”, the growth inhibition (K562) was “FKBP-dependent growth inhibition” and the “co-immunoprecipitation of Src with HA-FKBP12” value (Src and HA-FKBP12) was “form a stable ternary complex”. The “durability of effect after washout” value ([2]; washed 3 times with PBS) was “durable after washout” and the “dependence of activity on FKBP12” value (FKBP12 [3]) was “dependent on FKBP12”.

`Cc1nc(Nc2ncc(C(=O)Nc3c(C)cccc3Cl)s2)cc(N2CCN(CCO)CC2)n1` [dasatinib, reference compound] was tested, and the “time after drug washout at which phosphotyrosine signal is restored” value ([2]; then drug removed) was at most 1 h and the “number of kinases inhibited >70%” value [4] was 9.

With `C=CC[C@@H]1/C=C(\C)C[C@H](C)C[C@H](OC)[C@H]2O[C@@](O)(C(=O)C(=O)N3CCCC[C@H]3C(=O)O[C@H](/C(C)=C/[C@@H]3CC[C@@H](O)[C@H](OC)C3)[C@H](C)[C@@H](O)CC1=O)[C@H](C)C[C@@H]2OC` [FK506, tacrolimus, reference compound] the “co-immunoprecipitation of Src with HA-FKBP12” value (Src and HA-FKBP12) was “not”.

For `C=CC(=O)Nc1cc(Cl)cc(NC(=O)c2cnn(-c3ccc(OCC(=O)N4CCN(C(=O)CCC[C@@H](C)[C@@H](O)[C@H]5C(=O)N[C@@H](CC)C(=O)N(C)CC(=O)N(C)[C@@H](CC(C)C)C(=O)N[C@@H](C(C)C)C(=O)N(C)[C@@H](CC(C)C)C(=O)N[C@@H](C)C(=O)N[C@H](C)C(=O)N(C)[C@@H](CC(C)C)C(=O)N(C)[C@@H](CC(C)C)C(=O)N(C)[C@@H](C(C)C)C(=O)N5C)CC4)cc3)c2C(F)(F)F)c1` [Compound 08-058], the Sos-mediated nucleotide exchange (HRAS, CypA, Sos; 1 μM Ras.GDP, 1 μM Mant-GDP, 1 μM Sos) was “inhibits Sos-mediated nucleotide exchange”, the ternary complex formation (HRAS, CypA, Sos; HRAS, CypA) was “forms a ternary complex” and the Ras.Raf binding (Ras.Raf binding) was “does not seem to impair Ras.Raf binding”.

For `CCNc1nc(Nc2cc(F)c(C(=O)N3CCN(C(=O)CCC[C@@H]4/C=C(\C)C[C@H](C)C[C@H](OC)[C@H]5O[C@@](O)(C(=O)C(=O)N6CCCC[C@H]6C(=O)O[C@H](/C(C)=C/[C@@H]6CC[C@@H](O)[C@H](OC)C6)[C@H](C)[C@@H](O)CC4=O)[C@H](C)C[C@@H]5OC)CC3)cc2OC)ncc1C(F)(F)F` [FK-GNE7915], the “inhibition of LRRK2 autophosphorylation compared to parent” value (LRRK2) was “more efficacious than its parent molecule GNE7915”.

With `C=CC(=O)N1CCN(c2nc(NCCC(=O)NCCNC(=O)CCC[C@@H](C)[C@@H](O)[C@H]3C(=O)N[C@@H](CC)C(=O)N(C)CC(=O)N(C)[C@@H](CC(C)C)C(=O)N[C@@H](C(C)C)C(=O)N(C)[C@@H](CC(C)C)C(=O)N[C@@H](C)C(=O)N[C@H](C)C(=O)N(C)[C@@H](CC(C)C)C(=O)N(C)[C@@H](CC(C)C)C(=O)N(C)[C@@H](C(C)C)C(=O)N3C)nc3c(F)c(-c4c(O)cccc4F)c(Cl)cc23)CC1` [Compound 07-014] the “melting curve of the complex” value (KRAS and CypA) was 2-stage melting curve.

In the case of `CCNc1nc(Nc2cc(F)c(C(=O)N3CCN(C(=O)CCC[C@@H]4/C=C(\C)C[C@H](C)C[C@H](OC)[C@H]5O[C@@](O)(C(=O)C(=O)N6CCCC[C@H]6C(=O)O[C@H](/C(C)=C/[C@@H]6CC[C@@H](O)[C@H](OC)C6)[C@H](C)[C@@H](O)CC4=O)[C@H](C)C[C@@H]5OC)CC3)cc2OC)ncc1C(F)(F)F` [Compound 08-074], the “cellular activity compared to parent compound” value (LRRK2; 3T3 or RAW264.7 cells, 2 h treatment) is reported as “more potent cellular activity than its parent compound GNE-7915”.

For `CO[C@H]1C[C@@H](C)C/C(C)=C/[C@@H](CCCC(=O)N2CCN(c3cc(Nc4ncc(C(=O)Nc5c(C)cccc5Cl)s4)nc(C)n3)CC2)C(=O)C[C@H](O)[C@@H](C)[C@@H](/C(C)=C/[C@@H]2CC[C@@H](O)[C@H](OC)C2)OC(=O)[C@@H]2CCCCN2C(=O)C(=O)[C@]2(O)O[C@H]1[C@@H](OC)C[C@H]2C` [FK506-Dasatinib], the Kd (FKBP12 [5]) was 23 nM.
